The structures appear in SMILES notation.

The test addresses WT HIV-1 protease (Human immunodeficiency virus type 1 group M subtype B (isolate HXB2) (HIV-1), UniProt P04585). The test is described as follows: Assay for inhibition of microbial expressed HIV protease (Procedure A, peptide substrate, HPLC fluorescence detection). Particulars: WT HIV-1 protease 10 pM, substrate 400 micromolar, pH 5.5, 30 min preincubation, 1 hour at 30° C.; read-out: Enzyme inhibition IC50. Format: biochemical. On the procedure:
The inhibition of WT HIV-1 protease was studied using the reaction of the protease (expressed in Eschericia coli) with a peptide substrate [Val-Ser-Gln-Asn-(betanaphthyl)Ala-Pro-Ile-Val (SEQ ID NO:1)]. Compounds were tested using Procedure A. In Procedure A, the test compound was first preincubated with the enzyme in assay buffer (50 mM sodium acetate, pH 5.5, 100 mM NaCl, and 0.1% BSA) for 30 minutes at room temperature. Substrate was then added to 400 micromolar in a total volume of 80 microliters containing 10 picomolar HIV-1 protease and the reaction was incubated for 1 hour at 30° C. The reaction was quenched with the addition of 120 microliters of 10% phosphoric acid. The product formation was determined after separation of product and substrate on a Zorbax Eclipse XDB-C18 column (Agilent Technologies, Santa Clara, Calif.) connected to an Agilent 1100 high performance liquid chromatography system with fluorescence detection (excitation 270 nanometer and emission 330 nanometer).
One may read the IC50 as the concentration that gives 50% inhibition. For the molecule `COC(=O)N[C@H](C(=O)N[C@H](c1ccc([C@@H](CO)N(CCC(C)(C)C)S(=O)(=O)c2ccc(-n3ccnn3)cc2)s1)C(F)(F)F)C(c1ccccc1)c1ccccc1` [Example 113], the IC50 turned out to be 25.9 nM.

As for `COC(=O)N[C@H](C(=O)NCc1ccc([C@@H](CO)N(Cc2cc3ccccc3[nH]2)S(=O)(=O)c2ccc3scnc3c2)s1)C(c1ccccc1)c1ccccc1` [Example 25], the IC50 is 7.99 nM.

With `COC(=O)N[C@H](C(=O)N[C@H](c1ccc([C@@H](CO)N(C(C)C)S(=O)(=O)c2ccc(N)cc2)s1)C(F)(F)F)C(c1ccccc1)c1ccccc1` [Example 77, N-[(1S)-1-{5-[(1R)-1-{[(4-aminophenyl)sulfonyl](propan-2-yl)amino}-2-hydroxyethyl]thiophen-2-yl}-2,2,2-trifluoroethyl]-Nα-(methoxycarbonyl)-β-phenyl-L-phenylalaninamide], the IC50 was 23 nM.

As to `COC(=O)N[C@H](C(=O)N[C@H](c1ccc([C@@H](CO)N(CCC(F)(F)F)S(=O)(=O)c2ccc3ncsc3c2)s1)C(F)(F)F)C(c1ccccc1)c1ccccc1` [Example 104, N-[(1S)-1-(5-{(1R)-1-[(1,3-benzothiazol-6-ylsulfonyl)(3,3,3-trifluoropropyl)amino]-2-hydroxyethyl}thiophen-2-yl)-2,2,2-trifluoroethyl]-Nα-(methoxycarbonyl)-β-phenyl-L-phenylalaninamide], the IC50 stood at 0.85 nM.

In the case of `COC(=O)N[C@H](C(=O)N[C@H](c1ccc([C@@H](CO)N(CCC(C)(C)C)S(=O)(=O)c2ccc3[nH]ncc3c2)s1)C(F)(F)F)C(c1ccccc1)c1ccccc1` [Example 93, N-[(1S)-1-(5-{(1R)-1-[(3,3-dimethylbutyl)(1H-indazol-5-ylsulfonyl)amino]-2-hydroxyethyl}thiophen-2-yl)-2,2,2-trifluoroethyl]-Nα-(methoxycarbonyl)-β-phenyl-L-phenylalaninamide], the IC50 turned out to be 0.31 nM.

For the molecule `COC(=O)N[C@H](C(=O)NCc1ccc(C(CO)N(Cc2cc3cccnc3[nH]2)S(=O)(=O)c2ccc3scnc3c2)s1)C(c1ccccc1)c1ccccc1` (stereo partly shown) [Example 34], the IC50 amounted to 35 nM.

`COC(=O)N[C@H](C(=O)N[C@H](c1ccc([C@@H](CO)N(C(C)C)S(=O)(=O)c2ccc3cc[nH]c3c2)s1)C(F)(F)F)C(c1ccccc1)c1ccccc1` [Example 79, Nα-(methoxycarbonyl)-β-phenyl-N-[(1S)-2,2,2-trifluoro-1-(5-{(1R)-2-hydroxy-1-[(1H-indol-6-ylsulfonyl)(propan-2-yl)amino]ethyl}thiophen-2-yl)ethyl]-L-phenylalaninamide]: the IC50 was 12.5 nM.

As for `COC(=O)N[C@H](C(=O)NCc1ccc([C@@H](CO)N(CC(C)C)S(=O)(=O)c2ccc3ncsc3c2)s1)C(c1ccccc1)c1ccccc1` [Example 123, N-[(5-{(1R)-1-[(1,3-benzothiazol-6-ylsulfonyl)(2-methylpropyl)amino]-2-hydroxyethyl}thiophen-2-yl)methyl]-Nα-(methoxycarbonyl).-β-phenyl-L-phenylalaninamide], the IC50 is 6.3 nM.

On to `COC(=O)N[C@H](C(=O)NCc1ccc([C@@H](CO)N(Cc2cc3cccnc3[nH]2)S(=O)(=O)c2ccc3scnc3c2)s1)C(c1ccccc1)c1ccccc1` [Example 35], for which the IC50 was determined as 11.9 nM.

Regarding `COC(=O)N[C@H](C(=O)N[C@H](c1ccc([C@@H](CO)N(CCC(F)(F)F)S(=O)(=O)c2ccc(N)cc2)s1)C(F)(F)F)C(c1ccccc1)c1ccccc1` [Example 85, N-[(1S)-1-{5-[(1R)-1-{[(4-aminophenyl)sulfonyl](3,3,3-trifluoropropyl)amino}-2-hydroxyethyl]thiophen-2-yl}-2,2,2-trifluoroethyl]-Nα-(methoxycarbonyl)-β-phenyl-L-phenylalaninamide], the IC50 is 0.33 nM.

Consider `COC(=O)N[C@H](C(=O)N[C@H](c1ccc([C@@H](CO)N(CCC(C)(C)C)S(=O)(=O)c2ccc(CO)cc2)s1)C(F)(F)F)C(c1ccccc1)c1ccccc1` [Example 53, N-[(1S)-1-(5-{(1R)-1-[(3,3-dimethylbutyl){[4-(hydroxymethyl)phenyl]sulfonyl}amino]-2-hydroxyethyl}thiophen-2-yl)-2,2,2-trifluoroethyl]-Nα-(methoxycarbonyl)-β-phenyl-L-phenylalaninamide], for which the IC50 came to 0.156 nM.

As for `COC(=O)N[C@H](C(=O)N[C@H](c1ccc([C@@H](CO)N(CCC(C)(C)C)S(=O)(=O)c2ccc(N)cc2Cl)s1)C(F)(F)F)C(c1ccccc1)c1ccccc1` [Example 117, N-[(1S)-1-(5-{(1R)-1-[[(4-amino-2-chlorophenyl)sulfonyl](3,3-dimethylbutyl)amino]-2-hydroxyethyl}-2-thienyl)-2,2,2-trifluoroethyl]-Nα-(methoxycarbonyl)-β-phenyl-L-phenylalaninamide], the IC50 is 0.47 nM.

For `COC(=O)N[C@H](C(=O)N[C@H](c1ccc([C@@H](CO)N(CCCC(F)(F)F)S(=O)(=O)c2ccc3ncsc3c2)s1)C(F)(F)F)C(c1ccccc1)c1ccccc1` [Example 105, N-[(1S)-1-(5-[(1R)-1-[(1,3-benzothiazol-6-ylsulfonyl)(4,4,4-trifluorobutyl)amino]-2-hydroxyethyl}thiophen-2-yl)-2,2,2-trifluoroethyl]-Nα-(methoxycarbonyl)-β-phenyl-L-phenylalaninamide], the IC50 was found to be 1.77 nM.

Regarding `COC(=O)N[C@H](C(=O)N[C@H](c1ccc([C@@H](CO)N(CCC(C)(C)C)S(=O)(=O)c2ccc3nn[nH]c3c2)s1)C(F)(F)F)C(c1ccccc1)c1ccccc1` [Example 101, N-[(1S)-1-(5-{(1R)-1-[(1H-benzotriazol-6-ylsulfonyl)(3,3-dimethylbutyl)amino]-2-hydroxyethyl}thiophen-2-yl)-2,2,2-trifluoroethyl]-Nα-(methoxycarbonyl)-β-phenyl-L-phenylalaninamide], the IC50 is 0.84 nM.

Turning to `COC(=O)N[C@H](C(=O)N[C@H](c1ccc([C@@H](CO)N(CCC(C)(C)C)S(=O)(=O)c2ccc(N)cc2)s1)C(F)(F)F)C(c1ccccc1)c1ccccc1` [Example 44, N-[(1S)-1-{5-[(1R)-1-{[(4-aminophenyl)sulfonyl](3,3-dimethylbutyl)amino}-2-hydroxyethyl]thiophen-2-yl}-2,2,2-trifluoroethyl]-Nα-(methoxycarbonyl)-β-phenyl-L-phenylalaninamide], the IC50 amounted to 0.196 nM.

Take `COC(=O)N[C@H](C(=O)NCc1ccc([C@@H](CO)N(CC2CC(F)(F)C2)S(=O)(=O)c2ccc(N)c(F)c2)s1)C(c1ccccc1)c1ccccc1` [Example 43]: the IC50 amounted to 5.04 nM.

As to `COC(=O)N[C@H](C(=O)N[C@H](c1ccc([C@@H](CO)N(CC(C)C)S(=O)(=O)c2ccc(N)cc2)s1)C(F)(F)F)C(c1ccccc1)c1ccccc1` [Example 60, N-[(1S)-1-{5-[(1R)-1-{[(4-aminophenyl)sulfonyl](2-methylpropyl)amino}-2-hydroxyethyl]thiophen-2-yl}-2,2,2-trifluoroethyy]-Nα-(methoxycarbonyl)-β-phenyl-L-phenylalaninamide], the IC50 turned out to be 2.01 nM.

With `COC(=O)N[C@H](C(=O)NCc1ccc(C(CO)N(Cc2cn[nH]c2)S(=O)(=O)c2ccc3scnc3c2)s1)C(c1ccccc1)c1ccccc1` (stereo partly shown) [Example 31], the IC50 turned out to be 3.62 nM.

Regarding `COC(=O)N[C@H](C(=O)NCc1ccc([C@@H](CO)N(CC2CC(F)(F)C2)S(=O)(=O)c2ccc3c(c2)CCC3O)s1)C(c1ccccc1)c1ccccc1` (stereo partly shown) [Example 37], the IC50 amounted to 5.65 nM.

The record behind these values is patent US9133157B2, “HIV protease inhibitors” (Merck Canada Inc., priority 2011, dated 2015).
